From patent US5591726A, “Heterocyclylalkyl diarylboron ester and thioester fungicidal agents” (American Cyanamid Company, priority 1994, dated 1997)

What was measured:
[1] = system: Cercospora beticola; assay: In vivo fungicidal evaluation, Sugar Beet Cercospora (SBC); conditions: 200 ppm foliar spray; further: ranges in brackets are in %
Experimental: (§1) Test compounds are dissolved or suspended in acetone and diluted with deionized water containing about 0.05% TWEEN®20, a polyoxyethylene sorbitan monolaurate surfactant manufactured by Atlas Chemical Industries, to give a concentration of 200 ppm. Host plants are sprayed with the test solution, dried and inoculated with fungi. When disease symptom development is optimal, the plants are rated for disease control according to the rating scale shown below. Each test contains inoculated treated plants, inoculated untreated plants and a reference standard. When more than one test is run, the data are averaged. The data obtained are shown in Table I. |SBC Sugar Beet Cercospora | Cercospora beticola

[2] = system: Alternaria solani; assay: In vivo fungicidal evaluation, Tomato Early Blight (TEB); conditions: 200 ppm foliar spray; further: ranges in brackets are in %
Experimental: as §1, with “|TEB Tomato Early Blight” for “|SBC Sugar Beet Cercospora”, “Alternaria solani” for “Cercospora beticola”

[3] = system: Septoria nodorum (propiconazole-resistant and -sensitive strains); type: cell-based; conditions: EC50 resistant strain / EC50 sensitive strain, 50 to 54 hours
[4] = system: Pyricularia grisea; type: in vivo; conditions: Rice Blast; 200 ppm foliar spray
[5] = system: Fusarium oxysporum f. sp. cucumerinum; assay: In vitro fungicidal evaluation, FUSOXC; type: cell-based; conditions: 25 ppm; 3-7 days at 21° C. Further: ranges in brackets are in %.
Experimental: (§2) Test compounds are dissolved or suspended in acetone and dispersed into cell well plates containing a suspension of ground fungal mycelia/spores in a nutrient broth. Assay plates are incubated for 3-7 days at 21° C. Growth inhibition is measured visually and is rated using the following scale:
(§3) Untreated controls, solvent blanks and reference standards are included in each test.
(§4) Assay fungi include the plant pathogens, Pythium ultimum (PYTHUL); Rhizoctonia solani (RHIZSO); Fusarium oxysporum f. sp. cucumerinum (FUSOXC); and Pseudocercosporella herpotrichoides (PSDCHE).
(§5) When more than one test is run, the data are averaged. The compounds evaluated are reported by compound number given in Example 3.

[6] = system: Botrytis cinerea; assay: In vivo fungicidal evaluation, Pepper Botrytis (PB); conditions: 200 ppm foliar spray; further: ranges in brackets are in %
Experimental: as §1, with “|PB Pepper Botrytis Botrytis cinerea” for “|SBC Sugar Beet Cercospora | Cercospora beticola”

[7] = system: Erysiphe graminis f. sp. tritici; assay: In vivo fungicidal evaluation, Wheat Powdery Mildew (WPM); conditions: 200 ppm foliar spray; further: ranges in brackets are in %
Experimental: as §1, with “|WPM Wheat Powdery Mildew” for “|SBC Sugar Beet Cercospora”, “Erysiphe graminis | f. sp. tritici” for “Cercospora beticola”

[8] = system: Ustilago avenae (triadimefon-resistant and -sensitive strains); type: cell-based; conditions: EC50 resistant strain / EC50 sensitive strain, 50 to 54 hours
[9] = system: Venturia inaequalis; assay: In vivo fungicidal evaluation, Apple Scab (AS); conditions: 200 ppm foliar spray; further: ranges in brackets are in %
Experimental: as §1, with “|AS Apple Scab Venturia inaequalis” for “|SBC Sugar Beet Cercospora | Cercospora beticola”

[10] = system: Pythium ultimum; assay: In vitro fungicidal evaluation, PYTHUL; type: cell-based; conditions: 25 ppm; 3-7 days at 21° C. Further: ranges in brackets are in %.
Experimental: as §2, §3, §4, §5

[11] = system: Pseudocercosporella herpotrichoides; assay: In vitro fungicidal evaluation, PSDCHE; type: cell-based; conditions: 25 ppm; 3-7 days at 21° C. Further: ranges in brackets are in %.
Experimental: as §2, §3, §4, §5

[12] = system: Septoria nodorum; assay: In vivo fungicidal evaluation, Wheat Septoria Nodorum (WSN); conditions: 200 ppm foliar spray
Experimental: Test compounds are dissolved or suspended in acetone and diluted with deionized water containing about 0.05% TWEEN®20, a polyoxyethylene sorbitan monolaurate surfactant manufactured by Atlas Chemical Industries, to give a concentration of 200 ppm.
Host plants are sprayed with the test solution, dried and inoculated with fungi. When disease symptom development is optimal, the plants are rated for disease control according to the rating scale shown below. Each test contains inoculated treated plants, inoculated untreated plants and a reference standard. When more than one test is run, the data are averaged.
WSN Wheat Septoria Nodorum

[13] = system: Rhizoctonia solani; assay: In vitro fungicidal evaluation, RHIZSO; type: cell-based; conditions: 25 ppm; 3-7 days at 21° C. Further: ranges in brackets are in %.
Experimental: as §2, §3, §4, §5

[14] = system: Plasmopara viticola; assay: In vivo fungicidal evaluation, Grape Downy Mildew (GDM); conditions: 200 ppm foliar spray; further: ranges in brackets are in %
Experimental: as §1, with “|GDM Grape Downy Mildew” for “|SBC Sugar Beet Cercospora”, “Plasmopara viticola” for “Cercospora beticola”

[15] = system: Cladosporium cucumerinum (fenarimol-resistant and -sensitive strains); type: cell-based; conditions: EC50 resistant strain / EC50 sensitive strain, 50 to 54 hours

| SMILES | Disease control rating, SBC [1] | Disease control rating, TEB [2] | Resistance Factor, Septoria nodorum [3] | Disease control rating, RB [4] | Growth inhibition rating, FUSOXC [5] | Disease control rating, PB [6] | Disease control rating, WPM [7] | Resistance Factor, Ustilago avenae [8] | Disease control rating, AS [9] | Growth inhibition rating, PYTHUL [10] | Growth inhibition rating, PSDCHE [11] | Disease control rating, WSN [12] | Growth inhibition rating, RHIZSO [13] | Disease control rating, GDM [14] | Resistance Factor, Cladosporium cucumerinum [15] |
| --- | --- | --- | --- | --- | --- | --- | --- | --- | --- | --- | --- | --- | --- | --- | --- |
| Clc1ccc(C(OB(c2ccccc2)c2ccccc2)(c2cncnc2)c2ccccc2Cl)cc1 (centres unmarked) [Compound 2, (o-Chlorophenyl)(p-chlorophenyl)(5-pyrimidinyl)methyl diphenylborinate] | 9 (100) | 8 (96-99) | 1.3 | 0 (0) | 9 (100) | 8 (96-99) | 8 (96-99) | 1.3 | 9 (100) | 7 (90-99) | 0 (0) | 8 (96-99) | 9 (100) | 3 (30-44) |  |
| CC(C)(C)C(CCc1ccc(Cl)cc1)(Cn1cncn1)OB(c1ccc(F)cc1)c1ccc(F)cc1 (centres unmarked) [Compound 4, 1-Tert-butyl-3-(p-chlorophenyl)-1-(1H-1,2,4-triazol-1-ylmethyl)propyl bis(p-fluorophenyl)borinate] | 6 (75-89) | 6 (75-89) | 1.9 | 6 (75-89) | 9 (100) | 7 (90-95) | 8 (96-99) | 2.3 | 7 (90-95) | 9 (100) | 0 (0) | 2 (15-29) | 9 (100) | 8 (96-99) | 1.3 |
| CC(C)(C)C(CCc1ccc(Cl)cc1)(Cn1cncn1)OB(c1ccccc1)c1ccccc1 (centres unmarked) [Compound 3, 1-Tert-butyl-3-(p-chlorophenyl)-1-(1H-1,2,4-triazol-1-ylmethyl)propyl diphenylborinate] | 6 (75-89) | 6 (75-89) | 1.8 | 6 (75-89) | 9 (100) | 6 (75-89) | 8 (96-99) | 2.0 | 8 (96-99) | 9 (100) | 0 (0) | 0 (0) | 9 (100) | 9 (100) | 1.7 |
| OC(c1ccc(Cl)cc1)(c1cncnc1)c1ccccc1Cl (centres unmarked) [Fenarimol, reference compound] |  |  | 9.6 |  |  |  |  | 9.9 |  |  |  |  |  |  |  |
| CC(C)(C)C(O)(CCc1ccc(Cl)cc1)Cn1cncn1 (centres unmarked) [Tebuconazole, reference compound] |  |  | 6.1 |  |  |  |  |  |  |  |  |  |  |  |  |
| Fc1ccc(B(OC(Cn2ccnc2)c2ccc(Cl)cc2Cl)c2ccc(F)cc2)cc1 (centres unmarked) [Compound 1, 1-(2,4-Dichlorophenyl)-2-(imidazol-1-yl)ethyl bis(p-fluorophenyl)borinate] | 6 (75-89) | 4 (45-59) | 1.2 | 8 (96-99) | 5 (60-89) | 0 (0) | 8 (96-99) | 2.6 | 0 (0) | 5 (60-89) | 0 (0) | 0 (0) | 7 (90-99) | 0 (0) | 1.5 |
| Clc1ccc(C(Cn2ccnc2)OB(c2ccccc2)c2ccccc2)c(Cl)c1 (centres unmarked) [Compound 6, 1-(2,4-Dichlorophenyl)-2-(imidazol-1-yl)ethyl diphenylborinate] | 5 (60-74) | 0 (0) | 1.0 | 0 (0) | 9 (100) | 0 (0) | 8 (96-99) | 1.6 | 3 (30-44) | 7 (90-99) | 0 (0) | 0 (0) | 9 (100) | 0 (0) | 1.1 |
| Clc1ccc(COC(Cn2ccnc2)c2ccc(Cl)cc2Cl)cc1 (centres unmarked) [Econazole nitrate, reference compound] |  |  | 1.8 |  |  |  |  | 2.0 |  |  |  |  |  |  | 2.0 |
| Fc1ccc(B(OC(c2ccc(Cl)cc2)(c2cncnc2)c2ccccc2Cl)c2ccc(F)cc2)cc1 (centres unmarked) [Compound 5, (o-Chlorophenyl)(p-chlorophenyl)(5-pyrimidinyl)methyl bis(p-fluorophenyl)borinate] | 7 (90-95) | 3 (30-44) |  | 0 (0) | 0 (0) | 0 (0) | 8 (96-99) |  | 7 (90-95) | 1 (1-29) | 0 (0) | 7 (90-95) | 7 (90-99) | 0 (0) |  |
| Clc1ccc(COC(Cn2ccnc2)c2ccc(Cl)cc2Cl)c(Cl)c1 (centres unmarked) [Miconazole nitrate, reference compound] |  |  | 2.5 |  |  |  |  | 4.1 |  |  |  |  |  |  | 2.4 |
